These results are taken from PubChem BioAssay AID256 (DTP/NCI, 2004).

For this assay, the system named is CD2F1 mice, L1210 leukemia ip, survival T/C. Briefly: NCI In Vivo Anticancer Drug Screen. Data for tumor model L1210 Leukemia (intraperitoneal) in CD2F1 (CDF1) mice. Particulars: higher = longer survival. The procedure, abridged:
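Antitumor effect is scored in animals hosting a serially transplanted tumor. Values compare compound-dosed animals against vehicle-only controls as a simple quotient.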

Setting [1] is: endpoint: mean survival time, dose: 100.0 mg/kg/injection, schedule: Q01DX009 (ip), vehicle: saline with Tween-80.
Setting [2] is: endpoint: mean survival time, dose: 200.0 mg/kg/injection, schedule: Q01DX009 (ip), vehicle: saline with Tween-80.

Each structure is given as a SMILES string. Several values for one entry are separate records, joined by “and”; a condition that tells them apart may be missing. Identical values can stand only once. Inconclusive results and toxic doses are left out.

As to `O=NN(CCF)C(=O)NC1CCCCC1`, the T/C reads like this: (endpoint: median survival time, dose: 2.5 mg/kg/injection, schedule: Q01DX001 (ip), vehicle: saline) 101 % of control; (endpoint: median survival time, dose: 2.5 mg/kg/injection, schedule: Q04DX002 (ip), vehicle: saline) 93 % of control; (endpoint: median survival time, dose: 5.0 mg/kg/injection, schedule: Q01DX001 (ip), vehicle: saline) 101 % of control; (endpoint: median survival time, dose: 5.0 mg/kg/injection, schedule: Q04DX002 (ip), vehicle: saline) 106 % of control; (endpoint: median survival time, dose: 10.0 mg/kg/injection, schedule: Q01DX001 (ip), vehicle: saline) 102 % of control; (endpoint: median survival time, dose: 10.0 mg/kg/injection, schedule: Q04DX002 (ip), vehicle: saline) 120 % of control and 223 % of control. Also, the T/C by setting is: (endpoint: median survival time, dose: 20.0 mg/kg/injection, schedule: Q01DX001 (ip), vehicle: saline) 103 % of control; (endpoint: median survival time, dose: 20.0 mg/kg/injection, schedule: Q04DX002 (ip), vehicle: saline) 365 % of control; (endpoint: median survival time, dose: 40.0 mg/kg/injection, schedule: Q01DX001 (ip), vehicle: saline) 120 % of control; (endpoint: median survival time, dose: 40.0 mg/kg/injection, schedule: Q04DX002 (ip), vehicle: saline) 216 % of control and 365 % of control; (endpoint: median survival time, dose: 80.0 mg/kg/injection, schedule: Q01DX001 (ip), vehicle: saline) 168 % of control; (endpoint: median survival time, dose: 80.0 mg/kg/injection, schedule: Q04DX002 (ip), vehicle: saline) 207 % of control and 361 % of control.
`CC(=O)Nc1ccc(CCc2nc(NC(C)=O)nc(Cl)c2-c2ccc(Cl)c(Cl)c2)cc1`: the T/C is, setting by setting: (endpoint: mean survival time, dose: 75.0 mg/kg/injection, schedule: Q01DX001 (ip), vehicle: saline with Tween-80) 103 % of control; (endpoint: mean survival time, dose: 150.0 mg/kg/injection, schedule: Q01DX001 (ip), vehicle: saline with Tween-80) 101 % of control; (endpoint: mean survival time, dose: 300.0 mg/kg/injection, schedule: Q01DX001 (ip), vehicle: saline with Tween-80) 94 % of control.
`c1ccc(-c2cc(-c3ccccc3)on2)cc1`: the T/C under setting [1] is 96 % of control; the T/C (endpoint: mean survival time, dose: 100.0 mg/kg/injection, schedule: Q04DX003 (ip), vehicle: saline with Tween-80) was 93 % of control; the T/C under setting [2] was 94 % of control; the T/C (endpoint: mean survival time, dose: 200.0 mg/kg/injection, schedule: Q04DX003 (ip), vehicle: saline with Tween-80) is 94 % of control; the T/C (endpoint: mean survival time, dose: 400.0 mg/kg/injection, schedule: Q01DX009 (ip), vehicle: saline with Tween-80) is 97 % of control; the T/C (endpoint: mean survival time, dose: 400.0 mg/kg/injection, schedule: Q04DX003 (ip), vehicle: saline with Tween-80) was 98 % of control.
With `CCCCOc1ccc(/C=N\NC(=O)CNC(=O)Nc2ccc(F)cc2)cc1`, the T/C runs as follows: (endpoint: mean survival time, dose: 50.0 mg/kg/injection, schedule: Q01DX009 (ip), vehicle: saline with Tween-80) 92 % of control; under setting [1], 88 % of control; under setting [2], 88 % of control.
